Patent US10829446B2, “Aryl sulfonohydrazides” (MONASH UNIVERSITY, priority 2015, dated 2020)

Columns and labels:
Type in all cases: cell-based
[1] = tested on: mouse embryonic fibroblasts expressing KrasG12V; experiment: Bioassay 4: cumulative cell counts, KrasG12V expression; conditions: for Cumulative Cell Counts: KrasG12V
Protocol: To test if cells expressing mutant forms of RAS sensitized to senescence induction, MOZ inhibitors were combined with the ectopic expression of KRASG12V. Cells are plated in triplicate cultures at 10,204 cells/cm2 then transfected with control retroviral vectors pBABE or pBABE containing a mutant KrasG12V expression cassette. Cultures were maintained at 3% O2. Selection for transfected cells is achieved using puromycin. Compounds are tested at 0 μM 1 μM, 2.5 μM, and 5 μM. After 48 hours, cells are passaged and counted, then replated at 10,204/cm2. This procedure is continued for 336 hours. The total number of cells produced at each passage is then calculated and compared between treatment groups. Cellular senescence is determined by cell cycle arrest. Comparisons are between cells treated with vehicle only expressing the control vector, cells treated with 5 μM expressing the control vector (concentration shown in bioassay 1 to produce cellular senescence) and cells treated with 0 uM 1 μM, 2.5 μM, and 5 μM expressing the KrasV12 expressing vector vector

[2] = tested on: Eμ-Myc pre-leukemia pre B cells; experiment: Bioassay 7: pre-B cell number dose response, Eμ-Myc
Protocol: (§1) Pre B cells are isolated from bone marrow according to the criterion: cell surface expression of B220, CD19, but not cKit or IgM. Pre-B cells are cultured on OP9 cells with IL7 in the presence of compounds at concentrations from 0.01 μM to 20 μM in vitro for 4 days. Cell number is then enumerated and an IC50 is calculated.

Wild type pre B cells = experiment: Bioassay 7: pre-B cell number dose response, wild type; conditions: B-cell, 96 h; wild type Pre B cells; 4 days
Protocol: as §1

## Cc1cc(-c2ccccc2)cc(C(=O)NNS(=O)(=O)c2ccccc2)c1F [Compound 36]
[1]; 1 μm, 96 h
  Cumulative Cell Counts: 128333.3
[1]; 1 μm, 336 h
  Cumulative Cell Counts: 132000
[1]; 2.5 μm, 96 h
  Cumulative Cell Counts: 141666.7
[1]; 2.5 μm, 336 h
  Cumulative Cell Counts: 94133.33
[1]; 5 μm, 96 h
  Cumulative Cell Counts: 126666.7
[1]; 5 μm, 336 h
  Cumulative Cell Counts: 50940
[1]; in words
  cell number in the presence of mutant KRas: dose dependent decrease in cell number
[2]; B-cell, 96 h, Eμ-Myc pre-leukemia pre B cells, 4 days
  IC50: 421 nM
[2]; in words
  suppression of pre B cell proliferation in cells expressing the cMyc oncogene: effective in suppression of pre B cell proliferation
Wild type pre B cells
  IC50: 364 nM
